Source: publication PMC6514664, “Six New Coumarin Glycosides from the Aerial Parts of Gendarussa vulgaris” (Molecules, 2019)

Tests used:
Eca-109 cell line = test: MTT cytotoxicity assay, Eca-109 cell line; assay type: cell-based, Human; conditions: Eca-109 esophageal cancer cell line, etoposide positive control
Method: (§1) The cytotoxic activities of all isolated compounds were evaluated by MTT assay.
(§2) According to the previous procedure, all isolated compounds were evaluated for cytotoxic activities against Eca-109, MCF-7, and HepG2 cell lines, as well as a normal human umbilical vein endothelial cell line (HUVEC) (Table 3). Etoposide was used as the positive control.
(§3) The UV spectra were measured on a Shimadzu UV-1700 spectrometer (Shimadzu Corporation, Kyoto, Japan). The IR spectra were measured on a Nicolet 10 Microscope Spectrometer (Thermo Scientific, San Jose, CA, USA). The 1D and 2D NMR spectra were recorded on Bruker-AC (E)-500 spectrometer (Bruker AM 500, Fällanden, Switzerland) using TMS as an internal standard. The HR-ESI-MS was determined on a Bruker microTOF-Q instrument (Bruker BioSpin, Rheinstetten, Germany). Column chromatography was performed with silica gel (200–300 mesh; Qingdao Marine Chemical Inc., Qingdao, China), sephadex LH-20 (GE Healthcare), ODS (50 µm; YMC Co. LTD., Kyoto, Japan.), AB-8 macroporous resin (Qinshi Science and Technology Ltd., Zhengzhou, China). Thin layer chromatography (TLC) was carried out on silica gel GF254 precoated plates (Qingdao Marine Chemical Inc., Qingdao, China), and spots were visualized under UV light. Preparative HPLC separations were performed on a SEP system (Beijing Sepuruisi scientific Co., Ltd., China) equipped with a variable-wavelength UV detector, using a YMC-Pack ODS-A column (250 × 20 mm, 5 μm). Chemical reagents for isolation were of analytical grade and purchased from Tianjin Siyou Co., Ltd., China. Biological reagents were from Sigma Company. Human heptocellular (HepG2), esophageal (Eca-109), and breast (MCF-7) cancer cell lines were from Institute of Materia Medica, Chinese Academy of Medical Sciences and Peking Union Medical College, China.

MCF-7 cell line = test: MTT cytotoxicity assay, MCF-7 cell line; assay type: cell-based, Human; conditions: etoposide positive control
Method: as §1, §2, §3

HepG2 cell line = test: MTT cytotoxicity assay, HepG2 cell line; assay type: cell-based, Human; conditions: HepG2 hepatocellular cancer cell line, etoposide positive control
Method: as §1, §2, §3

[1] = MTT cytotoxicity assay, normal HUVEC cell line; assay type: cell-based; conditions: HUVEC (normal human umbilical vein endothelial cells)
Method: (§4) According to the previous procedure [22], all isolated compounds were evaluated for cytotoxic activities against Eca-109, MCF-7, and HepG2 cell lines, as well as a normal human umbilical vein endothelial cell line (HUVEC) (Table 3). Etoposide was used as the positive control.

[2] = system: normal human umbilical vein endothelial cell line (HUVEC); test: MTT cytotoxicity assay, normal HUVEC cell line; assay type: cell-based
Method: as §4

[3] = Homo sapiens, MCF7, MCF-7 breast cancer cell line

Compound | IC50 (Eca-109 cell line; Homo sapiens) [µM] | IC50 (MCF-7 cell line; [3]) [µM] | IC50 (HepG2 cell line; Homo sapiens) [µM] | IC50 [1] [µM] | IC50 (Eca-109 cell line) [µM] | IC50 (MCF-7 cell line; MCF-7 breast cancer cell line) [µM] | IC50 (HepG2 cell line) [µM] | IC50 [2] [µM]
COc1cc2ccc(=O)oc2cc1O[C@@H]1O[C@H](CO)[C@@H](O)[C@H](O[C@@H]2O[C@H](CO)[C@@H](O)[C@H](O)[C@H]2O)[C@H]1O [Compound 3, 7-[(3-O-β-D-glucopyranosyl-β-D-glucopyranosyl)oxy]-6-methoxycoumarin] | > 100 | > 100 | > 100 | – | – | – | – | –
COc1cc2ccc(=O)oc2c(O[C@@H]2O[C@H](CO)[C@@H](O)[C@H](O)[C@H]2O)c1O[C@@H]1O[C@H](CO)[C@@H](O)[C@H](O)[C@H]1O [Compound 6, 7,8-bis(β-D-glucopyranosyloxy)-6-methoxycoumarin] | > 100 | > 100 | > 100 | – | – | – | – | –
COc1cc2ccc(=O)oc2c(O)c1O [Compound 12, fraxetin] | 20.4 ± 1.94 | 28.6 ± 1.37 | 30.3 ± 1.18 | > 100 | – | – | – | –
COc1cc2ccc(=O)oc2cc1O [Compound 13, scopoletin] | 45.7 ± 3.55 | 61.6 ± 5.7 | 53.7 ± 4.09 | > 100 | – | – | – | –
COc1cc2ccc(=O)oc2c(O)c1OC [Compound 14, fraxidin] | 41.1 ± 3.78 | 59.6 ± 5.24 | > 100 | > 100 | – | – | – | –
COc1cc2ccc(=O)oc2cc1OC [Compound 16, scoparone] | > 100 | > 100 | > 100 | – | – | – | – | –
COc1cc([C@@H]2c3cc4c(cc3[C@@H](O[C@@H]3O[C@@H]5CO[C@@H](C)O[C@H]5[C@H](O)[C@H]3O)[C@H]3COC(=O)[C@H]23)OCO4)cc(OC)c1O [etoposide, reference compound] | 20.5 ± 1.82 | 5.82 ± 0.49 | 1.15 ± 0.09 | – | – | – | – | –
cleomiscosin A [Compound 11] | – | – | – | – | 21 ± 1.85 | 35.3 ± 2.61 | 43.7 ± 3.97 | > 100
